Results: patent US20220245798A1, “TISSUE STEM CELL COUNTING […] USES THEREOF” (Asymmetrex LLC, priority 2021, published 2022)

Tested on: HSCs in CD34+-selected normal human bone marrow cells
Assay: PSCK-RIFS tissue stem cell counting and cell kinetics determination, serial culture of BM-CD34+ cells with stem cell-active agents
Format: cell-based
Conditions: for Committed Progenitor Cells CC Time / Stem Cells Asym CC Time / Stem Cells SSR Rate, RS / Stem Cells Sym CC Time / Stem Cells Initial Fraction: BM-CD34+ serial culture, agent supplemented at all times; for Committed Progenitor Cells CC Time / Stem Cells Asym CC Time / Stem Cells SSR Rate, RS / Stem Cells Sym CC Time: mean of n=5; for Stem Cells Initial Fraction: mean of n=5 PSCK-RIFS determinations
Excerpt: Strain WI-38 pre-senescent human lung cells were purchased from the American Type Culture Collection (Manassas, Va., USA; ATCC #CCL-75; passage 15). Expanded human liver stem cell strain SACK-XS 12(3) was purchased from Kerafast (Boston, Mass., USA; #EJS002). CD34+-selected normal human bone marrow cells were purchased from the ATCC (#PCS-800-012). CD34+-selected human umbilical cord blood cells were purchased from STEMCELL Technologies, Inc. (Cat#70008; Cambridge, Mass.).
Expanded human liver stem cell strain SACK-XS 12(3) cells were cultured in the supplier's recommended culture medium without inclusion of xanthosine. CD34+-selected normal human bone marrow cells were cultured in StemSpan™ SFEM II medium (STEMCELL Technologies, Inc., Cambridge, Mass., USA; #09655) supplemented with StemSpan™ CD34+ Expansion Supplement (STEMCELL Technologies, Inc., #02691). SACK-XS 12(3) serial cultures were initiated in 6-well plates with 325,000 viable cells. CD34+ cell serial cultures were initiated as 24-well suspension cultures with 65,000 viable cells. For both cell types, ⅓ of total cells were transferred to a new culture well every 96±4 hour interval. Tested agents were supplemented at all times during the culture period.
Based on the determined stem cell symmetric self-renewal frequency (RS), in the early studies presented herein a correction was applied to account for this effect. The correction is determined by the following Equation 1:
NSo corrected=NS1st interval/(RSe^kt+RA−RDS) (Equation 1)
In Equation 1, NS1st interval=NS peak value determined from the initial interval of PSCK; t=the time to the first interval NS peak in the respective simulation; k=ln 2/GTS, the mean generation time for symmetrically self-renewing stem cells; RS, RA, and RDS are mean cell kinetics factors determined by the originating PSCK-RIFS analysis (See EXAMPLE 4). The mean of 10 independent PSCK NS simulations was used for correction. Equation 1 was applied to determine the initial stem cell fraction whenever a significant RS value was found.
The simulation confidence level was estimated from the root mean squared error of the comparison of simulated cumulative population doubling (CPD) data to experimental CPD data. Student's t-test (2-tailed) was used to calculate p-values for confidence for cell kinetics factors determined by the PSCK-RIFS software (See also EXAMPLE 4) with respect to 0.0 and their 95% confidence intervals. Student's t-test (2-tailed) was also used to calculate p-values for confidence for differences in the value of cell kinetics factors derived under different culture conditions.
FIGS. 1 and 11 outline the application of the PSCK-RIFS software. A tissue cell preparation of interest is first counted (including viable cell determination; NC in Table 5) and used to initiate serial cultures, typically in triplicate.
At an experimenter defined interval (SPLI in Table 5), cultures are counted—including viable cell count—and a constant fraction of the cells or number of the cells is transferred to a new culture dish of the same type (FIG. 11). The PSCK software is designed to be versatile for accommodating different formats for the culture time period and/or the number of cells transferred. The total cell count data are transformed into plots of cumulative population doublings (CPD); and the viable cell fraction is used to estimate the dead cell fractions for transient cells (RDT in Table 5) and terminal cells (RDTM in Table 5), which are similarly very abundant during most of the culture period.
FIG. 1 depicts the various inputs that are used by the PSCK software to calculate CPD curve simulations for the period defined by the experimental CPD data. Using the cellular model illustrated in FIG. 1, the software inputs measured values (“m” superscripted in FIG. 1) and discovered factors (“d” superscripted in FIG. 1) obtained from the RIFS software. An important aspect of the PSCK-RIFS method is that there is no underlying mathematical algorithm. […]

Row | Compound | Committed Progenitor Cells CC Time | Stem Cells Asym CC Time | Stem Cells SSR Rate, RS | Stem Cells Sym CC Time | Stem Cells Initial Fraction | change in determined HSC number (within the first four days of culture) | change in stem cell fraction of supplemented cultures (BM-CD34+ cultures) | increase in HSC number (after only 4 days of culture) [fold] | RS, rate of symmetric self-renewal, of HSC divisions (increase from undetectable, p=0.037) [%]
1 | O=NN(CCCl)C(=O)NCCCl [BCNU, bis-chloroethylnitrosourea] | 6.4 h (NS) | 7.6 (NS) h | 0.0 (NS) | 8.2 h (NS) | 1.3 × 10^−4 (0.001) | decrease |  |  | 
2 | O=c1[nH]c(=O)c2ncn([C@@H]3O[C@H](CO)[C@@H](O)[C@H]3O)c2[nH]1 [Xanthosine, xanthosine] | 8.2 h (NS) | 6.6 h (NS) | 3.2 × 10^−3 (0.037) | 9.4 h (NS) | 3.5 × 10^−3 (0.001) |  | increases | 10 | 0.32
